This is an account of results in PubChem BioAssay (NCI).

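Values below derive from 48-hour exposures of cells grown in 96-well plates, with endpoints linearly interpolated between the two concentrations bracketing the appropriate inhibition level. TGI marks complete inhibition of growth.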

Holding throughout (experiment): NCI-60 cell line screen, 48 h
The subject of assay [1] is KM20L2 colon.
Assay [2] concerns M19-MEL melanoma.
For assay [3], the system named is HOP-18 NSCLC.
The subject of assay [4] is DMS 114 small cell lung.
Assay [5] deals with DLD-1 colon.
Assay [6] relates to LXFL 529 NSCLC.
In assay [7] the test system is SNB-78 CNS.
For assay [8], the system named is RXF-631 renal.
For assay [9], the system named is XF 498 CNS.

As to `NC(N)=NS(=O)(=O)c1ccc(Nc2c3ccccc3nc3c(C(=O)Nc4ccc(S(N)(=O)=O)cc4)ccc(Cl)c23)cc1`, the TGI in assay [1], in assay [2], in assay [3], in [4], in assay [5] and in assay [6] was over 100 µM in each case. For the same compound, the TGI in [7], in assay [8] and in assay [9] was over 100 µM in each case.
Take `CCCCCCCC(=O)OCC1OC(OC)C(NC(=O)N(CCCl)N=O)C(O)C1O` (stereo not given): the TGI is over 59.2 µM in [1]; 49.2 µM in assay [2]; 72.3 µM in assay [3]; 29.6 µM in [4]; 28.6 µM in [5]; 42 µM in [6]. Also, the TGI in assay [7] was determined as 79.6 µM; in [8] it was 19 µM; in [9] it was 30.6 µM.
Regarding `Cc1nn(C)cc1P(=S)(c1ccccc1)c1ccccc1`, the TGI in assay [1], in assay [2], in [3], in [4], in assay [5] and in [6] was over 100 µM throughout. Further, the TGI in [7] and in assay [9] was over 100 µM throughout.
With `CN1Cc2cc3c(cc2-c2ccccc21)OCO3`, the TGI in [1], in assay [2], in assay [3], in assay [5], in assay [6] and in assay [7] was over 100 µM each time. Besides, the TGI in assay [9] is over 100 µM.
Consider `CCOc1ccc(NC(=O)C2=C(C)NC(C)=C(C(=O)Nc3ccc(OCC)cc3)C2c2ccccc2)cc1`, for which the TGI in [1], in assay [2], in assay [4], in assay [5], in [6] and in [7] was over 100 µM throughout. The TGI in [8] and in [9] was over 100 µM each time.
`O=C(COC(=O)c1cccc2c(=O)c3ccccc3[nH]c12)Nc1ccccc1`: the TGI is over 100 µM in assay [1]; over 100 µM in assay [2]; over 100 µM in assay [3]; 59.3 µM in assay [4]; over 100 µM in assay [5]; over 100 µM in assay [6]. In addition, the results for the TGI in assay [8] and in [9] were 99 µM and 74.4 µM, respectively.
For the compound `CCOC(=O)c1ccc(NC(=O)SCCC(=O)O)cc1`, the TGI in [1], in [4], in assay [5], in assay [6] and in assay [7] was over 100 µM throughout.
As to `Cc1nc2ccccc2c(=O)n1NC(=S)Nc1ccc(Cl)cc1[N+](=O)[O-]`, the TGI in assay [1], in assay [2], in [4] and in assay [6] was over 100 µM each time.
Take `COc1ccc(C=C(c2ccc(OCc3ccccc3)cc2)c2ccc(OCc3ccccc3)cc2)cc1`: the TGI in assay [1], in assay [2], in assay [3], in assay [4], in [5] and in assay [6] was over 100 µM each time. Moreover, the TGI in assay [7], in assay [8] and in assay [9] was over 100 µM in each case.
Turning to `COc1c(C)cc2c(c1O)C1NC(C2)[C@H](O)N2C3COC(=O)[C@@]4(CS[C@@H](c5c(OC(C)=O)c(C)c6c(c53)OCO6)C12)NCCC1=C4NC2C=CC=CC12` (stereo not given in full), the TGI in [1] is under 0.01 µM; in assay [2] it was under 0.01 µM; in assay [4], under 0.01 µM; in assay [5] it was 0.0498 µM; in assay [6], 0.0117 µM; in assay [8], 0.167 µM.
Regarding `O=c1[nH]cnc2c1CCCN2`, the TGI in assay [1], in assay [2], in assay [3], in [4], in assay [5] and in assay [6] was over 100 µM in each case. In addition, the TGI in assay [7] was over 100 µM.
`O=[N+]([O-])c1c(C=Nc2ccccc2)oc(-c2ccc3c(c2)OCO3)c1-c1ccc2c(c1)OCO2`: the TGI in assay [1], in [2], in assay [4], in assay [5], in [6] and in [7] was over 100 µM in each case. For the same compound, the TGI in assay [8] and in assay [9] was over 100 µM throughout.
As for `N#CCC(=O)N/N=C(\C(=O)Nc1ccc(Cl)c(Cl)c1)C1CN(c2ccccc2)N=C1N` (stereo not given), the TGI in assay [1], in [2], in assay [3], in assay [4], in assay [5] and in assay [6] was over 100 µM in each case. The TGI in [7] was over 100 µM.
`Brc1cc2c(cc1C1SCCS1)OCO2`: the TGI in [1], in assay [3], in assay [4], in [5], in assay [6] and in assay [7] was over 100 µM in each case. The compound further yielded a TGI in [8] of over 100 µM.
Take `Cc1ccc(C(=O)OCC(C)C)cc1N=NN(C)C`: the TGI in [1], in assay [2], in assay [5], in assay [6] and in assay [7] was over 100 µM throughout.
In the case of `CC(=O)c1cccc(NC(=O)C(=O)Nn2c(N)nnc2N)c1`, the TGI in assay [1], in assay [2], in [3], in assay [4], in assay [5] and in [6] was over 100 µM throughout. Moreover, the TGI in [7] and in assay [9] was over 100 µM in each case.
